Reference: patent US20080227790A1, “Pyridazinone Derivatives and their Use as Pde4 Inhibitors” (Altana Pharma AG, priority 2004, published 2008)

Assays:
PDE4B2 = target: T1, PDE4B2 (Homo sapiens, UniProt Q07343); assay: Inhibition of PDE4B2 activity, modified [3H]cAMP SPA enzyme assay; type: biochemical; details: recombinant PDE4B2 (GB no. M97515) expressed in SF21 cells; 0.5 μM cAMP; 15 min at 37° C.; read-out: PDE4 Inhibition [measured as −logIC50 (mol/l)] (converted)
T1 construct: made in house; host or cells: SF21 insect cells (baculovirus prepared in SF9 cells; pCR-Bac vector)
T1 sequence (Q07343 1-564 isoform Q07343-2): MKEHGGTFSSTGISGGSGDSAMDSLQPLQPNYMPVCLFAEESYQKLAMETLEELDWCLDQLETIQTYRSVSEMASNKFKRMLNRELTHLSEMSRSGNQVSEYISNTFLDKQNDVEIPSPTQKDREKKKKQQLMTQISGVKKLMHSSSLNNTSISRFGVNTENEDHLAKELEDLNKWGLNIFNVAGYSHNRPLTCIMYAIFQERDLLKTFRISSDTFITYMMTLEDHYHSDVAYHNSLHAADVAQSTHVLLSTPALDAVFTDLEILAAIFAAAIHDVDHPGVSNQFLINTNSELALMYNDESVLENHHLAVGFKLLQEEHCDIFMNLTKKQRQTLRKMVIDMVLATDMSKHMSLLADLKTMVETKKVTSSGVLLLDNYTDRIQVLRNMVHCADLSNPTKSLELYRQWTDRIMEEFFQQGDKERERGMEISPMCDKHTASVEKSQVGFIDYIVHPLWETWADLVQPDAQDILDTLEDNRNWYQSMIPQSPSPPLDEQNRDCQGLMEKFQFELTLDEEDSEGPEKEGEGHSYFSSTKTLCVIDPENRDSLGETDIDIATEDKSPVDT
Description: PDE4B2 (GB no. M97515) was a gift of Prof. M. Conti (Stanford University, USA). It was amplified from the original plasmid (pCMV5) via PCR with primers Rb9 (5′-[…]-3′) and Rb10 (5′-[…]-3′) and cloned into the pCR-Bac vector (Invitrogen, Groningen, NL).
The recombinant baculovirus was prepared by means of homologous recombination in SF9 insect cells. The expression plasmids were cotransfected with Bac-N-Blue (Invitrogen, Groningen, NL) or Baculo-Gold DNA (Pharmingen, Hamburg) using a standard protocol (Pharmingen, Hamburg). Wt virus-free recombinant virus supernatants were selected using plaque assay methods. After that, high-titre virus supernatants were prepared by amplifying 3 times. PDE4B2 was expressed in SF21 cells by infecting 2×10^6 cells/ml with an MOI (multiplicity of infection) between 1 and 10 in serum-free SF900 medium (Life Technologies, Paisley, UK). The cells were cultured at 28° C. for 48-72 hours, after which they were pelleted for 5-10 min at 1000 g and 4° C.
The SF21 insect cells were resuspended, at a concentration of approx. 10^7 cells/ml, in ice-cold (4° C.) homogenization buffer (20 mM Tris, pH 8.2, containing the following additions: 140 mM NaCl, 3.8 mM KCl, 1 mM EGTA, 1 mM MgCl2, 10 mM β-mercaptoethanol, 2 mM benzamidine, 0.4 mM Pefablock, 10 μM leupeptin, 10 μM pepstatin A, 5 μM trypsin inhibitor) and disrupted by ultrasonication. The homogenate was then centrifuged for 10 min at 1000×g and the supernatant was stored at −80° C. until sub-sequent use (see below). The protein content was determined by the Bradford method (BioRad, Munich) using BSA as the standard.
PDE4B2 activity was inhibited by the compounds according to the invention in a modified SPA (scintillation proximity assay) test, supplied by Amersham Biosciences (see procedural instructions “phosphodiesterase [3H]cAMP SPA enzyme assay, code TRKQ 7090”), carried out in 96-well microtitre plates (MTP's). The test volume is 100 μl and contains 20 mM Tris buffer (pH 7.4), 0.1 mg of BSA (bovine serum albumin)/ml, 5 mM Mg^2+, 0.5 μM cAMP (including about 50,000 cpm of [3H]cAMP), 1 μl of the respective substance dilution in DMSO and sufficient recombinant PDE (1000×g supernatant, see above) to ensure that 10-20% of the cAMP is converted under the said experimental conditions. […] After a preincubation of 5 min at 37° C., the reaction is started by adding the substrate (cAMP) and the assays are incubated for a further 15 min; after that, they are stopped by adding SPA beads (50 μl). In accordance with the manufacturer's instructions, the SPA beads had previously been resuspended in water, but were then diluted 1:3 (v/v) in water; the diluted solution also contains 3 mM IBMX to ensure a complete PDE activity stop. After the beads have been sedimented (>30 min), the MTP's are analyzed in commercially available luminescence detection devices. The corresponding IC50 values of the compounds for the inhibition of PDE4B2 activity are determined from the concentration-effect curves by means of non-linear regression.

Row | Compound | melting point | IC50 (PDE4B2)
1 | COc1ccc(C2=NN(c3ccc(C(=O)O)cc3)C(=O)C(C)(C)C2)cc1OC [Compound 1, 4-(3-{3,4-dimethoxyphenyl}-5,5-dimethyl-6-oxo-5,6-dihydro-4H-pyridazin-1-yl)-benzoic acid] | 196 to 198 °C | 32.4 nM
2 | COc1ccc(C2=NN(c3ccc(OCC(N)=O)cc3)C(=O)C(C)(C)C2)cc1OC [Compound 7, 2-{4-[3-(3,4-Dimethoxy-phenyl)-5,5-dimethyl-6-oxo-5,6-dihydro-4H-pyridazin-1-yl]-phenoxy}-acetamide] | 184 to 187 °C | 10.5 nM
3 | COc1ccc(C2=NN(c3ccc(OCc4ccccc4)cc3)C(=O)C(C)(C)C2)cc1OC [Compound 2, 2-(4-Benzyloxy-phenyl)-6-(3,4-dimethoxy-phenyl)-4,4-dimethyl-4,5-dihydro-2H-pyridazin-3-one] | 137 to 138 °C | 3.98 nM
4 | COc1ccc(C2=NN(c3ccc(C(=O)N4CCN(CCN5CCOCC5)CC4)cc3)C(=O)C(C)(C)C2)cc1OC.Cl.Cl [Compound 3, 6-(3,4-Dimethoxy-phenyl)-4,4-dimethyl-2-(4-{1-[4-(2-morpholin-4-yl-ethyl)-piperazin-1-yl]-methanoyl}-phenyl)-4,5-dihydro-2H-pyridazin-3-one dihydrochloride] | 249 °C (dec.) | 11.2 nM
5 | COc1ccc(C2=NN(c3ccc(O)cc3)C(=O)C(C)(C)C2)cc1OC [Compound 5, 6-(3,4-Dimethoxy-phenyl)-2-(4-hydroxy-phenyl)-4,4-dimethyl-4,5-dihydro-2H-pyridazin-3-one] | 176 to 178 °C | 6.03 nM
6 | COc1ccc(C2=NN(c3ccc(C(=O)N4CCN(c5ccncc5)CC4)cc3)C(=O)C(C)(C)C2)cc1OC.Cl.Cl [Compound 4, 6-(3,4-Dimethoxy-phenyl)-4,4-dimethyl-2-{4-[1-(4-pyridin-4-yl-piperazin-1-yl)-methanoyl]-phenyl}-4,5-dihydro-2H-pyridazin-3-one dihydrochloride] | 223 to 225 °C | 7.76 nM
7 | COc1ccc(C2=NN(c3ccc(C(=O)N4CCOCC4)cc3)C(=O)C(C)(C)C2)cc1OC [Compound 6, 6-(3,4-Dimethoxy-phenyl)-4,4-dimethyl-2-[4-(1-morpholin-4-yl-methanoyl)-phenyl]-4,5-dihydro-2H-pyridazin-3-one] | 165 to 166 °C | 1.74 nM
8 | COc1ccc(C2=NN(c3ccc(C(=O)N4CCN(CC(=O)N5CCCC5)CC4)cc3)C(=O)C(C)(C)C2)cc1OC.Cl [Compound 8, 6-(3,4-Dimethoxy-phenyl)-4,4-dimethyl-2-(4-{1-[4-(2-oxo-2-pyrrolidin-1-yl-ethyl)-piperazin-1-yl]-methanoyl}-phenyl)-4,5-dihydro-2H-pyridazin-3-one hydrochloride] | 144 to 146 °C | 7.59 nM

Second part, the molecule after the results:

Row | melting point | IC50 (PDE4B2) | Compound
9 | 165 to 167 °C | – | COc1ccc(C2=NN(c3ccc(CC(=O)N4CCOCC4)cc3)C(=O)C(C)(C)C2)cc1OC [Compound 14, 6-(3,4-Dimethoxy-phenyl)-4,4-dimethyl-2-[4-(2-morpholin-4-yl-2-oxo-ethyl)-phenyl]-4,5-dihydro-2H-pyridazin-3-one]
10 | 108 to 109 °C | – | COc1ccc(C2=NN(c3cccc(C(=O)N4CCOCC4)c3)C(=O)C(C)(C)C2)cc1OC [Compound 13, 6-(3,4-Dimethoxy-phenyl)-4,4-dimethyl-2-[3-(1-morpholin-4-yl-methanoyl)-phenyl]-4,5-dihydro-2H-pyridazin-3-one]
11 | 165 to 167 °C | – | COc1ccc(C2=NN(c3cccc(C(=O)O)c3)C(=O)C(C)(C)C2)cc1OC [Compound 11, 3-[3-(3,4-Dimethoxy-phenyl)-5,5-dimethyl-6-oxo-5,6-dihydro-4H-pyridazin-1-yl]-benzoic acid]
12 | 178 to 179 °C | – | COc1ccc(C2=NN(c3ccc(N4CCOCC4)cc3)C(=O)C(C)(C)C2)cc1OC [Compound 16, 6-(3,4-Dimethoxy-phenyl)-4,4-dimethyl-2-(4-morpholin-4-yl-phenyl)-4,5-dihydro-2H-pyridazin-3-one]
13 | 198 to 202 °C | – | COc1ccc(C2=NN(c3ccc(OCC(=O)N4CCN(C)CC4)cc3)C(=O)C(C)(C)C2)cc1OC.Cl [Compound 9, 6-(3,4-Dimethoxy-phenyl)-4,4-dimethyl-2-{4-[2-(4-methyl-piperazin-1-yl)-2-oxo-ethoxy]-phenyl}-4,5-dihydro-2H-pyridazin-3-one hydrochloride]
14 | 74 to 79 °C | 15.5 nM | COc1ccc(C2=NN(c3ccc(OCC(=O)N4CCOCC4)cc3)C(=O)C(C)(C)C2)cc1OC [Compound 10, 6-(3,4-Dimethoxy-phenyl)-4,4-dimethyl-2-[4-(2-morpholin-4-yl-2-oxo-ethoxy)-phenyl]-4,5-dihydro-2Hpyridazin-3-one]
15 | 123 to 124 °C | – | COc1ccc(C2=NN(c3ccc(Br)cc3)C(=O)C(C)(C)C2)cc1OC [Compound 15, 2-(4-Bromo-phenyl)-6-(3,4-dimethoxy-phenyl)-4,4-dimethyl-4,5-dihydro-2H-pyridazin-3-one]
